# Laboratory results from US10117854B2, “Method for treating hepatic encephalopathy” (MEDDAY PHARMACEUTICALS, priority 2016, dated 2018).
# Read-outs that look alike come from different tables or passages of the source.
# Key:
# [1] = test system: rats, acute liver failure induced by single high dose of CCl4; conditions: prior art; biotin 0.5 mg/kg BW single intraperitoneal injection, or oral with uncontrolled amount; cited from earlier work
# [2] = in vivo; cited from earlier work
# BDL rats [3] = assay: Blood ammoniemia in bile duct ligated rats; assay type: in vivo, rat; conditions: biotin 300 mg/kg of food (30 mg/kg BW/day), ANOVA p=0.01, FIG. 6
# Protocol: Adult male Wistar rats (weight 175-200 g at the initiation of the surgical procedure) were obtained from the Janvier labs (Le Gesnest-Saint-Isle) and were used for the whole experiments.
# Bile duct ligation (BDL) was used as a biliary cirrhosis model. All rats oh this group were operated on. They were randomly separated in two groups: BDL or simple laparotomy (SHAM, control-group). The BDL procedure was conducted as described previously (Kountouras J, Prolonged bile duct obstruction: a new experimental model for cirrhosis in the rat; Br J Exp Pathol 1984) and as controlled in our lab. Surgery was done under total anesthesia with inhalated isofluran (Aerrane, Baxter Maurepas) 3% mixed with air. Analgesia was done by sub-cutaneous injection of buprenorphin 2% (Buprécare 0.3 mg/ml, Axience) immediately before and after surgery.
# (§1) The blood sample taken during the sacrifice was centrifuged and the plasma was used to determine the levels of hepatic transaminases, total and conjugated bilirubin and ammonia. Plasmatic cytokines (IL6, TNFa, IFNg) were determined by a multiplex commercial kit.
# BDL rats [4] = assay: Open Field Test (behavioral test of hepatic encephalopathy); assay type: in vivo, rat; conditions: for OpenField test results compared with high-dose biotin: data not shown
# Protocol: Bile duct ligation (BDL) was used as a biliary cirrhosis model. All rats oh this group were operated on. They were randomly separated in two groups: BDL or simple laparotomy (SHAM, control-group). The BDL procedure was conducted as described previously (Kountouras J, Prolonged bile duct obstruction: a new experimental model for cirrhosis in the rat; Br J Exp Pathol 1984) and as controlled in our lab. Surgery was done under total anesthesia with […] isofluran (Aerrane, Baxter Maurepas) 3% mixed with air. Analgesia was done by sub-cutaneous injection of buprenorphin 2% (Buprécare 0.3 mg/ml, Axience) immediately before and after surgery. Rifaximin (Sigma Aldrich) was mixed with water at the dose of 50 mg/kg/d and began 3 days after the surgery. […] To assess the hepatic encephalopathy, the Open Field Test (BioSeb) was used, a behavioral test validated in BDL rats to explore neurological impairments (Leke, Plos One 2012; 7(5)). The test was done the day of sacrifice, in standardized experimental conditions (hour, place, light, noise). Each rat was placed in a square 1 m^2 box and was free to explore the arena during 6 minutes. Two areas were defined in the square, center and periphery. Mobility parameters were registered by a three-dimensional camera. The data analyzed after 6 minutes of experiments were: total distance travelled (cm), time of mobility (s), speed (cm/s), number of zone changes, distance travelled in the center and periphery zone, time spent in the center and periphery zone, number of rearing, total duration of rearing.
# IFNγ = assay: Plasmatic cytokines by multiplex kit; assay type: in vivo, rat; conditions: BDL rats treated with biotin (300 mg/kg food)
# Protocol: as §1
# BDL rats [5] = test system: BDL rats
# Protocol: The integrity of BBB was investigated by measuring the extravasation from intra-vascular compartment of dextran-Texas Red (Life Technologies) conjugated.
# Six weeks after the surgery, all rats were anesthetized with inhaleted isofluran 3%. 0.75 ml of fluorochrome was injected in the femoral vein (Texas Red 10 kDa 10 mg/ml) and circulated during 6 minutes. […] To remove the intravascular localized dye, we did a large thoracotomy to perfuse 300 ml of cold PBS (40 ml/min with a peristaltic pump) through the left cardiac ventricle.
# After decapitation, the brain was rapidly removed and the olfactory bulbs and brain stem eliminated with the cerebellum.
# After grinding the right hemisphere by vigorously shaking and centrifugation, the amount of fluorescent dextran (μg/g) in supernatants was measured by fluorimetry (Tecan Infinite M200) at 620 nm upon excitation at 588 nm. The content of dye was valued by interpolation in standard curve.
structure (smiles),measurement,setting,value
O=C(O)CCCC[C@@H]1SC[C@@H]2NC(=O)N[C@@H]21 [biotin],serum ammonium level,[1],decrease the serum ammonium level
same,plasma half life,[2],about 2 hours
same,hyperammonemia (blood ammoniemia),BDL rats [3],reduce hyperammonemia
same,neurological impairements observed in the OpenField test,BDL rats [4]; biotin 50 mg/kg of food (5 mg/kg of animal/day),not high enough to have an effect
same,neurological impairements observed in the OpenField test,"BDL rats [4]; biotin 300 mg/kg of food (30 mg/kg of animal/day), vs BDL rats without biotin",reduced
same,neurological impairements observed in the OpenField test,"BDL rats [4]; biotin 300 mg/kg of food (30 mg/kg of animal/day), vs BDL rats without biotin, listed as Biotin",comportmental improvement
same,IFNγ levels in plasma,IFNγ,decreased
same,intra-cerebral quantity of dextran (BBB permeability),"BDL rats [5]; BDL rats, biotin 300 mg/kg of food, vs BDL rats on control diet",normalize
same,intra-cerebral quantity of dextran (BBB permeability),"BDL rats [5]; BDL rats, biotin 300 mg/kg of food, vs BDL rats on control diet, listed as Biotin",normalization of BBB permeability
same,intra-cerebral quantity of dextran (BBB permeability),BDL rats [5]; biotin 50 mg/kg of food,did not reach normalization
"O=C([O-])c1ccccc1.[Na+] [sodium benzoate, Sodium benzoate]",OpenField test results compared with high-dose biotin,BDL rats [4]; sodium benzoate 200 mg/kg/d in water,similar
"CO[C@H]1/C=C/O[C@@]2(C)Oc3c(C)c(O)c4c(O)c(c5c(nc6cc(C)ccn65)c4c3C2=O)NC(=O)/C(C)=C\C=C\[C@H](C)[C@H](O)[C@@H](C)[C@@H](O)[C@@H](C)[C@H](OC(C)=O)[C@@H]1C [rifaximin, Rifaximin]",OpenField test results compared with high-dose biotin,BDL rats [4]; rifaximin 50 mg/kg/d in water,similar
